Reference: patent US9851346B2, “Chemical sensitivity screening test” (BRYSON PATENTS INC., priority 2014, dated 2017)

Experiments:
[1] = Strip test screening of various compounds (Example 17, FIGS. 10-11; strip composition not stated)
Procedure: Now referring to FIG. 10, the pain relief medication—ASA, ibuprofen and acetaminophen were screened in the presence of alcohol (Ethanol)—50 ml water and 50 ml of 40% vol/vol ethanol.
Now referring to FIG. 11, various sweetening agents or table salts were dissolved in 75 ml of filtered water and exposed to UV lamp for 3 minutes or 5 minutes.

[2] = Strip test, Screening Composition 1 (Examples 1-5): fluorescence under UV after contact with dissolved specimen; details: FIG. 9; increasing amounts dissolved in 50 ml of filtered water; strip test from Example 1
Excerpt: (§1) Prior to testing, the specimen of substance is placed directly into a solvent. Preferably, the solvent is a solvent such as distilled or filtered water. If the specimen is in tablet form, it should be crushed into a powder form and then added to the solvent. If the specimen is in other form, it is preferably disaggregated into smaller pieces. The powder or pieces are then left to sit in the solvent until dissolved, for a period ranging from a few second to minutes, hours or even days before it may be tested with the composition and/or strip test of the present invention. Preferably, the contact with the solvent is at least eight hours. A liquid or gel form can be put directly into the solvent. […]
The contacted test strip is then immediately observed under UV light in a dark room. In the presence of a predicted adverse reaction of the substance, the strip test will show the absence of fluorescence, or the fluorescence will decrease, or even completely disappear over a short period of time (about 90 seconds). […] According to an embodiment, the degree by which fluorescence disappears after initial exposure to the substance may be used to quantify the relative adverseness of the substance. For example, a slow disappearance of fluorescence represents a less adverse substance than a substance for which the fluorescence disappears rapidly over the course of the testing procedure. […]

[3] = Strip test, Screening Composition 3 with Activator 1 / Activator 2 (Examples 11-16); details: FIGS. 5-8; 3 to 5 minutes under UV light
Procedure: Once the urine has been provided, it needs to be cooled to a temperature of 18.3° C. This is the best temperature for testing in this case. When preparing for the test, the urine should be divided into two different groups. The first group is to add Activator 1 and observe the reaction. The second group is to add Activator 2 and observe the reaction.
To perform the Activator 1 test, take approximately 20 ml of urine and add 5 ml of the activator solution. Allow this to sit for 20 minutes under ultraviolet light. Once the 20 minutes has passed, place the strip test under ultraviolet light in a darkened room and apply approximately 1 ml of urine/Activator 1 solution onto the strip test. After the urine/Activator 1 solution has been applied to the strip test, one simply observes the reaction. […]
See FIGS. 5 to 8 for comparisons of presence and absence of the contaminant biomarkers (protein crystals) reaction results. The degree by which fluorescence disappears after initial exposure of urine/activator to the strip test may be used to quantify the relative presence of the factor in the urine. For example, a slow disappearance of fluorescence represents less presence of the pesticide biomarker than a urine/activator sample for which the fluorescence disappears rapidly over the course of the testing procedure.

[4] = Strip test, Screening Composition 2 (Examples 6-10): fluorescence under UV after contact with dissolved specimen; details: FIGS. 3-4; observed under UV light, 3 to 5 minutes
Excerpt: as §1, with “substance to be tested” for “substance”, “powder” for “powder form”, “another” for “other”, “small” for “smaller”, “mixed in and/or dissolved” for “dissolved,”, “seconds” for “second”
For testing, the strip test prepared above is placed under UV light in a room with reduced lighting to allow the reaction to be observed, and is contacted with the specimen of substance prepared above. […] In the presence of a predicted adverse reaction of the substance, the strip test will show the absence of fluorescence or the fluorescence will decrease, or even completely disappear over the short period of time (about 3 to 5 minutes). […]
See FIGS. 3 and 4 for comparisons of adverse and non-adverse reaction results. The degree by which fluorescence disappears after initial exposure to the substance may be used to quantify the relative adverseness of the substance. […]

Question: Which “Effect of the medication on adverseness in the presence of alcohol (strip test)” value (“Effect of the medication on adverseness” below) [1] does the source give for `CC(=O)Oc1ccccc1C(=O)O` [ASA] here?
Answer: diminishes adverseness to varying degrees

Question: What about the “Adverseness indicated by strip test” value [2] of the same molecule?
Answer: appears to be adverse

Question: For `[Cl-].[Na+]` [Sodium chloride (iodized), Sodium chloride], which “Adverseness / fluorescence indicated by strip test” value ([1]; FIG. 11, dissolved in 75 ml of filtered water, exposed to UV lamp for 3 minutes or 5 minutes) is on record?
Answer: appears to not be adverse

Question: For `CC(C)Cc1ccc(C(C)C(=O)O)cc1` (stereo not shown) [ibuprofen], which “Effect of the medication on adverseness” value [1] is on record?
Answer: diminishes adverseness to varying degrees

Question: And the “Adverseness indicated by strip test” value [2]?
Answer: is not

Question: With `OC[C@H]1O[C@H](O[C@]2(CCl)O[C@H](CCl)[C@@H](O)[C@@H]2O)[C@H](O)[C@@H](O)[C@H]1Cl` [Sucralose] as the molecule, how does the “Adverseness / fluorescence indicated by strip test, 5 minute exposure” value [1] read?
Answer: depleted fluorescence, indicative of a mild adverse effect

Question: And the “Adverseness indicated by strip test, initially” value [1]?
Answer: initially not adverse

Question: Which “Effect of the medication on adverseness” value [1] does the source give for `CC(=O)Nc1ccc(O)cc1` [acetaminophen] here?
Answer: diminishes adverseness to varying degrees

Question: What does the source list for `C[C@H](N)Cc1ccccc1` [Dextroamphetamine XR 5 mg, Dextroamphetamine]?
Answer: Strip test appearance (bright yellow glow = does not cause an adverse effect; dark color = may cause an adverse effect) [3]: turns a dark color; Strip test appearance (bright yellow glow = does not cause an adverse effect; dark color = may cause an adverse effect) [4]: turns a dark color

Question: With `CCOc1nc2cccc(C(=O)O)c2n1Cc1ccc(-c2ccccc2-c2nnn[nH]2)cc1` [candesartan 8 mg, candesartan] as the molecule, how does the “Strip test appearance (bright yellow glow = does not cause an adverse effect; dark color = may cause an adverse effect)” value [3] read?
Answer: glows a bright yellow color

Question: What about the “Strip test appearance (bright yellow glow = does not cause an adverse effect; dark color = may cause an adverse effect)” value [4] of the same molecule?
Answer: glows a bright yellow color

Question: Which “Adverseness indicated by strip test, alcohol alone” value [1] does the source give for `CCO` [Alcohol, Ethanol] here?
Answer: appears to be adverse
